Data as given in the supplement of paper PMC10307832.

Legend:
Experiment in all cases: relative viability (nuclei count vs DMSO), 5 days (fraction); higher = more cells survive
[1] = compound: C(C(=O)C(=O)O)Br [Bromopyruvate] + Cc1nc(Nc2ncc(C(=O)Nc3c(C)cccc3Cl)s2)cc(N2CCN(CCO)CC2)n1 [Dasatinib] (partner 0.075 µM)
Summary of the method: (§1)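 For relative viability, nuclei counts in treated wells were divided by those in vehicle wells. Lung cancer cell lines had been pin-tool dosed in 1536-well plates the day after seeding and cultured for 5 days, then fixed and stained in one step (final 0.05% Triton X-100, 1% formaldehyde, 1 ug/ml Hoechst) and imaged at 4×. Doses were one drug alone or a fixed anchor-drug dose plus five library-drug doses (not always all listed) in √10 steps, and values are duplicate-plate medians.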

Bicalutamide + Olaparib = compound: CC(O)(CS(=O)(=O)c1ccc(F)cc1)C(=O)Nc1ccc(C#N)c(C(F)(F)F)c1 [Bicalutamide] + O=C(c1cc(Cc2n[nH]c(=O)c3ccccc23)ccc1F)N1CCN(C(=O)C2CC2)CC1 [Olaparib] (partner 8 µM)
Summary of the method: as §1

Bromopyruvate + Olaparib = compound: C(C(=O)C(=O)O)Br [Bromopyruvate] + O=C(c1cc(Cc2n[nH]c(=O)c3ccccc23)ccc1F)N1CCN(C(=O)C2CC2)CC1 [Olaparib] (partner 8 µM)
Summary of the method: as §1

[2] = compound: CC(O)(CS(=O)(=O)c1ccc(F)cc1)C(=O)Nc1ccc(C#N)c(C(F)(F)F)c1 [Bicalutamide] + CS(=O)(=O)N1CCN(Cc2cc3nc(-c4cccc5[nH]ncc45)nc(N4CCOCC4)c3s2)CC1 [Pictilisib] (partner 1 µM)
Summary of the method: as §1

UMC-11
relative viability ([1]; first compound 1 µM): 0.504 | relative viability ([1]; first compound 3.162 µM): 0.497 | relative viability ([1]; first compound 10 µM): 0.484 | relative viability ([1]; first compound 31.62 µM): 0.433 | relative viability ([1]; first compound 100 µM): 0.495 | relative viability (Bicalutamide + Olaparib; first compound 0.08 µM): 0.386 | relative viability (Bicalutamide + Olaparib; first compound 0.253 µM): 0.347 | relative viability (Bicalutamide + Olaparib; first compound 0.8 µM): 0.406 | relative viability (Bicalutamide + Olaparib; first compound 2.53 µM): 0.522 | relative viability (Bromopyruvate + Olaparib; first compound 1 µM): 0.366 | relative viability (Bromopyruvate + Olaparib; first compound 3.162 µM): 0.356 | relative viability (Bromopyruvate + Olaparib; first compound 10 µM): 0.374 | relative viability (Bromopyruvate + Olaparib; first compound 31.62 µM): 0.35 | relative viability (Bromopyruvate + Olaparib; first compound 100 µM): 0.393 | relative viability ([2]; first compound 0.08 µM): 0.742 | relative viability ([2]; first compound 0.253 µM): 0.621 | relative viability ([2]; first compound 0.8 µM): 1.14 | relative viability ([2]; first compound 2.53 µM): 0.768
